The values below come from patent US12187701B2, “Taire family kinase inhibitors and uses thereof” (Dana-Farber Cancer Institute, Inc., priority 2018, dated 2025).

SMILES strings stand for the structures. A value given as a limit tells only on which side of the number the result lay.

For one experiment, the target named is Cdk14/CycY (Homo sapiens (Human), UniProt O94921). The experiment is described as follows: Lanthascreen Eu kinase binding assay for Cdk14/CycY with 30 minute pre-incubation. The settings on record: 30 minute pre-incubation of kinase with compound; read-out: IC50 CDK14 binding by Lanthascreen. As to the method: Lanthascreen Eu kinase binding assays were conducted for Cdk14/CycY largely as performed in the commercial assay service by Life Technologies, but included a 30 minute pre-incubation step of the kinase with candidate compounds to facilitate covalent bond formation.

For another experiment, the system named is HCT116 cells. The experiment is described as follows: Antiproliferation assay, Cell Titer Glo, 72 hours. The settings on record: Homo sapiens, HCT-116, 72 h. The experiment is classed as cell-based. The protocol:
HCT116 cells were plated in 384-well plates at 750 cells/well in 50 ul fresh media (McCoy's 5A+10% FBS+1% Penn/Strep) and treated with 0.1 μl candidate compounds in four-fold dilution series using the Janus pinner. Cells were incubated with compounds for 72 hours in 37° C. 5% CO2. Anti-proliferative effects of these compounds were assessed 72 hours after compound addition using Cell Titer Glo (Promega cat #G7571) as described in product manual by luminescence measurements using an Envision platereader. All proliferation assays were performed in biological quadruplicate. IC50 values were determined using a non-linear regression curve fit in GraphPad Prism 6.
On the technique in general: In ATP-based viability assays light output follows the ATP content of the culture.

As usually defined, the IC50 is the concentration that gives 50% inhibition.

Sequence of Cdk14/CycY (O94921 whole entry): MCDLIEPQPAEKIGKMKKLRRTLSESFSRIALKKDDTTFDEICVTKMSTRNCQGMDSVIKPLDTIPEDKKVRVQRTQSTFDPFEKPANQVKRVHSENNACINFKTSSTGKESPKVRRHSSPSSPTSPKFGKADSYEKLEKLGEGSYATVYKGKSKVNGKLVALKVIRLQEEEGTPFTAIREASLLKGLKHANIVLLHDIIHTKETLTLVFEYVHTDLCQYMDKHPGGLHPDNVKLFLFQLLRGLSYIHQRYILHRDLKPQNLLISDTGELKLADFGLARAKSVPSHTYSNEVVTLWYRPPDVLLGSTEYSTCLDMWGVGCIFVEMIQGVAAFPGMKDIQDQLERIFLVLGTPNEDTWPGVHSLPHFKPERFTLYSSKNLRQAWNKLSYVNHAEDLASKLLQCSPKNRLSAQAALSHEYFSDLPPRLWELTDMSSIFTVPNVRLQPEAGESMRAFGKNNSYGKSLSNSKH
Sequence of Cdk14/CycY (Q8ND76 whole entry partner): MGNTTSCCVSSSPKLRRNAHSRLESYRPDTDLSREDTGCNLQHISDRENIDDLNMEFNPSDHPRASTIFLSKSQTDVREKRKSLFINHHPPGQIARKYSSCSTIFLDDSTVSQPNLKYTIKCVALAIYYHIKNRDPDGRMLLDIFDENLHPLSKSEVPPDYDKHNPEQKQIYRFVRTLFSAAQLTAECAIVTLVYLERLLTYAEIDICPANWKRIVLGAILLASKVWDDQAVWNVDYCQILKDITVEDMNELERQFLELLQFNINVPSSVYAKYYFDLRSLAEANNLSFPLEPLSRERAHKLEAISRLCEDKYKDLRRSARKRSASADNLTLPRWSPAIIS

For `CN(C)C/C=C/C(=O)Nc1ccc(C(=O)N2CCC[C@@H](NC(=O)c3n[nH]cc3NC(=O)c3c(Cl)cccc3Cl)C2)cc1` [FMF-04-058-2, (R,E)-4-(2,6-dichlorobenzamido)-N-(1-(4-(4-(dimethylamino)but-2-enamido)benzoyl)piperidin-3-yl)-1H-pyrazole-3-carboxamide], the concentration for half-maximal inhibition (IC50) was above 1000 nM at Cdk14/CycY and 726 nM in the experiment on HCT116 cells. On the same counts, the results for `CN(C)C/C=C/C(=O)Nc1cccc(S(=O)(=O)N2CC[C@H](NC(=O)c3n[nH]cc3NC(=O)c3c(Cl)cccc3Cl)C2)c1` [FMF-05-068-2, (S,E)-4-(2,6-dichlorobenzamido)-N-(1-((3-(4-(dimethylamino)but-2-enamido)phenyl)sulfonyl)pyrrolidin-3-yl)-1H-pyrazole-3-carboxamide] are 308 nM and above 10000 nM. As to `CN(C)C/C=C/C(=O)Nc1ccc(C(=O)Nc2cccc(NC(=O)c3n[nH]cc3NC(=O)c3c(Cl)cccc3Cl)c2)cc1` [FMF-03-204-1, (E)-4-(2,6-dichlorobenzamido)-N-(3-(4-(4-(dimethylamino)but-2-enamido)benzamido)phenyl)-1H-pyrazole-3-carboxamide], the IC50 at Cdk14/CycY turned out to be 72 nM; in the experiment on HCT116 cells it was 24 nM. On the same counts, the results for `C=CC(=O)Nc1ccc(C(=O)N2CCC[C@@H](NC(=O)c3n[nH]cc3NC(=O)c3c(Cl)cccc3Cl)C2)cc1` [FMF-04-058-1, (R)—N-(1-(4-acrylamidobenzoyl)piperidin-3-yl)-4-(2,6-dichlorobenzamido)-1H-pyrazole-3-carboxamide] are above 1000 nM and above 10000 nM. As for `C=CC(=O)Nc1cccc(S(=O)(=O)N2CCC(NC(=O)c3nn(C)cc3NC(=O)c3c(Cl)cccc3Cl)CC2)c1` [FMF-04-180-1, N-(1-((3-acrylamidophenyl)sulfonyl)piperidin-4-yl)-4-(2,6-dichlorobenzamido)-1-methyl-1H-pyrazole-3-carboxamide], half-maximal inhibition in the experiment with HCT116 cells (IC50) required 9000 nM. As to `C=CC(=O)Nc1cccc(C(=O)Nc2cccc(NC(=O)c3n[nH]cc3NC(=O)c3c(Cl)cccc3Cl)c2)c1` [FMF-04-011-1, N-(3-(3-acrylamidobenzamido)phenyl)-4-(2,6-dichlorobenzamido)-1H-pyrazole-3-carboxamide], the IC50 on Cdk14/CycY was 308 nM; in the experiment with HCT116 cells it was 31 nM. Take `CN(C)C/C=C/C(=O)Nc1cccc(C(=O)N2CCC[C@@H](NC(=O)c3n[nH]cc3NC(=O)c3c(Cl)cccc3Cl)C2)c1` [FMF-04-059-2, (R,E)-4-(2,6-dichlorobenzamido)-N-(1-(3-(4-(dimethylamino)but-2-enamido)benzoyl)piperidin-3-yl)-1H-pyrazole-3-carboxamide]: the IC50 is above 1000 nM on Cdk14/CycY and above 10000 nM in the experiment with HCT116 cells. On the same counts, the results for `C=CC(=O)Nc1cccc(S(=O)(=O)N2CCC(N(C)C(=O)c3n[nH]cc3NC(=O)c3c(Cl)cccc3Cl)CC2)c1` [FMF-04-086-1, N-(1-((3-acrylamidophenyl)sulfonyl)piperidin-4-yl)-4-(2,6-dichlorobenzamido)-N-methyl-1H-pyrazole-3-carboxamide] are above 1000 nM and above 10000 nM. Consider `CN(C)C/C=C/C(=O)Nc1ccc(S(=O)(=O)N2CC[C@H](NC(=O)c3n[nH]cc3NC(=O)c3c(Cl)cccc3Cl)C2)cc1` [FMF-05-084-2, (S,E)-4-(2,6-dichlorobenzamido)-N-(1-((4-(4-(dimethylamino)but-2-enamido)phenyl)sulfonyl)pyrrolidin-3-yl)-1H-pyrazole-3-carboxamide], for which the results for the IC50 on Cdk14/CycY and in the experiment on HCT116 cells were 41 nM and above 10000 nM, respectively. The compound `CN(C)C/C=C/C(=O)Nc1cccc(CN2CCC(NC(=O)c3n[nH]cc3NC(=O)c3c(Cl)cc(Cl)cc3Cl)CC2)c1` [FMF-04-158-2, (E)-N-(1-(3-(4-(dimethylamino)but-2-enamido)benzyl)piperidin-4-yl)-4-(2,4,6-trichlorobenzamido)-1H-pyrazole-3-carboxamide] came in with an IC50 with HCT116 cells of 156 nM. As to `C=CC(=O)Nc1cccc(CN2CC[C@@H](NC(=O)c3n[nH]cc3NC(=O)c3c(Cl)cccc3Cl)C2)c1` [FMF-05-071-1, (R)—N-(1-(3-acrylamidobenzyl)pyrrolidin-3-yl)-4-(2,6-dichlorobenzamido)-1H-pyrazole-3-carboxamide], the IC50 is 282 nM on Cdk14/CycY and below 1 nM in the experiment with HCT116 cells.

In the experiment on HCT116 cells, `CN(C)C/C=C/C(=O)Nc1cccc(S(=O)(=O)N2CCC(NC(=O)c3nn(C)cc3NC(=O)c3c(Cl)cccc3Cl)CC2)c1` [FMF-04-180-2, (E)-4-(2,6-dichlorobenzamido)-N-(1-((3-(4-(dimethylamino)but-2-enamido)phenyl)sulfonyl)piperidin-4-yl)-1-methyl-1H-pyrazole-3-carboxamide] displayed an IC50 above 10000 nM.

`C=CC(=O)Nc1cccc(CN2CCC(NC(=O)c3n[nH]cc3NC(=O)c3c(F)cc(F)cc3F)CC2)c1` [FMF-04-200-1, N-(1-(3-acrylamidobenzyl)piperidin-4-yl)-4-(2,4,6-trifluorobenzamido)-1H-pyrazole-3-carboxamide]: the IC50 at Cdk14/CycY came to 31 nM; with HCT116 cells, 1.9 nM. Turning to `CN(C)C/C=C/C(=O)Nc1ccc(C(=O)N2CCC(NC(=O)c3n[nH]cc3NC(=O)c3c(Cl)cccc3Cl)CC2)cc1` [FMF-03-187-1, (E)-4-(2,6-dichlorobenzamido)-N-(1-(4-(4-(dimethylamino)but-2-enamido)benzoyl)piperidin-4-yl)-1H-pyrazole-3-carboxamide], the IC50 on Cdk14/CycY came out at 82 nM; with HCT116 cells, 71 nM. `CN(/C=C/C(=O)Nc1cccc(CN2CCC(NC(=O)c3n[nH]cc3NC(=O)c3c(Cl)cccc3Cl)CC2)c1)CCCCC1C[C@@H]2NC(=O)N[C@@H]2S1` (some centres unmarked) [FMF-04-131-1]: the IC50 at Cdk14/CycY came out at 49 nM.

Regarding `C=CC(=O)Nc1ccc(N2CC[C@H](NC(=O)c3n[nH]cc3NC(=O)c3c(Cl)cccc3Cl)C2)cc1` [FMF-05-074-1, (S)—N-(1-(4-acrylamidophenyl)pyrrolidin-3-yl)-4-(2,6-dichlorobenzamido)-1H-pyrazole-3-carboxamide], the concentration for half-maximal inhibition (IC50) at Cdk14/CycY was found to be 1200 nM; in the experiment on HCT116 cells, 2900 nM. In the case of `CN(C)C/C=C/C(=O)Nc1cccc(CNC(=O)c2n[nH]cc2NC(=O)c2c(Cl)cccc2Cl)c1` [FMF-05-067-2, (E)-4-(2,6-dichlorobenzamido)-N-(3-(4-(dimethylamino)but-2-enamido)benzyl)-1H-pyrazole-3-carboxamide], the IC50 in the experiment on HCT116 cells is above 10000 nM.

Turning to `C=CC(=O)N1CCC(NC(=O)c2n[nH]cc2NC(=O)c2c(Cl)cccc2Cl)CC1` [FMF-03-177-1, N-(1-acryloylpiperidin-4-yl)-4-(2,6-dichlorobenzamido)-1H-pyrazole-3-carboxamide], the IC50 at Cdk14/CycY was determined as 401 nM; in the experiment with HCT116 cells it was 341 nM. `C=CC(=O)Nc1cccc(N2CCC(NC(=O)c3n[nH]cc3NC(=O)c3c(Cl)cccc3Cl)CC2)c1` [FMF-05-085-1, N-(1-(3-acrylamidophenyl)piperidin-4-yl)-4-(2,6-dichlorobenzamido)-1H-pyrazole-3-carboxamide] returned an IC50 in the experiment on HCT116 cells of 93 nM. Turning to `C=CC(=O)Nc1cccc(C(=O)Nc2ccc(NC(=O)c3n[nH]cc3NC(=O)c3c(Cl)cccc3Cl)c(C)c2)c1` [FMF-04-085-1, N-(4-(3-acrylamidobenzamido)-2-methylphenyl)-4-(2,6-dichlorobenzamido)-1H-pyrazole-3-carboxamide], the IC50 at Cdk14/CycY was above 1000 nM. Compound `CN(C)C/C=C/C(=O)Nc1ccc(S(=O)(=O)N2CCC[C@@H](NC(=O)c3n[nH]cc3NC(=O)c3c(Cl)cccc3Cl)C2)cc1` [FMF-04-056-2, (R,E)-4-(2,6-dichlorobenzamido)-N-(1-((4-(4-(dimethylamino)but-2-enamido)phenyl)sulfonyl)piperidin-3-yl)-1H-pyrazole-3-carboxamide] showed an IC50 with HCT116 cells above 10000 nM. Turning to `C=CC(=O)Nc1cccc(CN2CCC(NC(=O)c3n[nH]cc3NC(=O)c3c(Cl)cccc3Cl)CC2)c1` [FMF-03-200-1, N-(1-(3-acrylamidobenzyl)piperidin-4-yl)-4-(2,6-dichlorobenzamido)-1H-pyrazole-3-carboxamide], inhibition in the experiment with HCT116 cells was half-maximal at 0.9 nM (IC50). `CN(C/C=C/C(=O)Nc1cccc(S(=O)(=O)N2CCC(NC(=O)c3n[nH]cc3NC(=O)c3c(Cl)cccc3Cl)CC2)c1)CCC(=O)NCCOCCOCCOCCNC(=O)CCCC[C@@H]1SC[C@@H]2NC(=O)N[C@@H]21` [FMF-04-153-1, 4-(2,6-dichlorobenzamido)-N-(1-((3-((E)-5-methyl-8,22-dioxo-26-((3aS,4S,6aR)-2-oxohexahydro-1H-thieno[3,4-d]imidazol-4-yl)-12,15,18-trioxa-5,9,21-triazahexacos-2-enamido)phenyl)sulfonyl)piperidin-4-yl)-1H-pyrazole-3-carboxamide]: the 50% inhibitory concentration (IC50) on Cdk14/CycY turned out to be 8 nM. Compound `C=CC(=O)Nc1cccc(S(=O)(=O)N2CCC(NC(=O)c3n[nH]cc3NC(=O)c3c(Cl)cccc3OC)CC2)c1` [FMF-04-107-1, N-(1-((3-acrylamidophenyl)sulfonyl)piperidin-4-yl)-4-(2-chloro-6-methoxybenzamido)-1H-pyrazole-3-carboxamide] yielded an IC50 in the experiment with HCT116 cells of 115 nM. With `COc1cccc(Cl)c1C(=O)Nc1c[nH]nc1C(=O)NC1CCN(S(=O)(=O)c2cccc(NC(=O)/C=C/CN(C)CCC(=O)NCCOCCOCCOCCNC(=O)CCCCC[C@H]3NC(=O)N[C@H]3C)c2)CC1` [FMF-05-035-1, 4-(2-chloro-6-methoxybenzamido)-N-(1-((3-((E)-5-methyl-27-((4R,5S)—5-methyl-2-oxoimidazolidin-4-yl)-8,22-dioxo-12,15,18-trioxa-5,9,21-triazaheptacos-2-enamido)phenyl)sulfonyl)piperidin-4-yl)-1H-pyrazole-3-carboxamide], on Cdk14/CycY, the IC50 was 46 nM.
